What was measured:
[1] = system: cortical pyramidal neurons; assay: Whole-cell patch clamp recording of spontaneous synaptic current (SPSC) in brain slices; format: cell-based; details: 30 μmol/L compound incubation, 10 μmol/L 5-HT; mouse brain slices
Description: 5-HT receptors play important roles in central and peripheral nervous systems. Malfunctions of these receptors have been linked to many neural disorders such as depression and psychosis. The effect of (–)-crebanine on changes in 5-HT induced synaptic transmission was evaluated by electrophysiological recording of mouse brain slices (Jang et al. [2012]). The spontaneous synaptic current (SPSC) of cortical pyramidal neurons was recorded in whole cell mode.
Cortical slices from ICR mouse of both genders (15–21 days) were prepared for electrophysiological recording. In brief, the animals were decapitated and brains were placed in cold sucrose artificial cerebrospinal fluid (sucrose-ASCF, in mmol/L: sucrose 213, KCl 2.5, NaH2PO4 1.25, NaHCO3 26, D-glucose 10, MgSO4 2, CaCl2 2, pH 7.4, 0–4 °C, saturated with 95% O2 and 5% CO2). The brains were cut into 280 or 300 μm slices with a vibratome (Leica VT1200S, Germany); slices were then incubated with ACSF (in mmol/L: NaCl 126, KCl 2.5, NaH2PO4 1.25, NaHCO3 26, D-glucose 25, MgSO4 2, CaCl2 2, pH 7.4, saturated with 95% O2 and 5% CO2) at room temperature for 1 h.
A whole-cell patch clamp technique was used. […] Activity of cortical pyramidal neurons was recorded using an amplifier (HEKA EPC 10 USB, Germany) in the voltage clamp mode. […]

[2] = target: T1, 5-HT2C receptor A222^5.46F (Homo sapiens, UniProt P28335, A222F/DEL255-298/G251D/H250E/H252N/INS299[…]/L248D/M247A/M300L/T253W); assay: Affinity MS assay, 5-HT2C mutant A222F; format: binding; details: mutant A222^5.46F, n = 2
T1 construct: the N- and C-terminals were truncated by 39 and 65 residues, respectively; PreScission protease site + 10× His (C); made in house
T1 sequence (P28335 with tags, fused parts or gaps with the stated changes): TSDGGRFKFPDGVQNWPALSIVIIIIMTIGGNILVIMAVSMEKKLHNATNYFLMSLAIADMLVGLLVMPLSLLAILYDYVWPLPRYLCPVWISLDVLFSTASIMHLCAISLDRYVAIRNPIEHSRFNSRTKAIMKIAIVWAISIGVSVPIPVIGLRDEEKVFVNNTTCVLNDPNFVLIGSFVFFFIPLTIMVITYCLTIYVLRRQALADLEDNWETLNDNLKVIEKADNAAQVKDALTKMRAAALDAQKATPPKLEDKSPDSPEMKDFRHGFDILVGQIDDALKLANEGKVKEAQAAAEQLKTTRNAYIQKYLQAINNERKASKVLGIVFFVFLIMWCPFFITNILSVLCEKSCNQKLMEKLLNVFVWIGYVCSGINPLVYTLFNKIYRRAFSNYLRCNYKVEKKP
Source text: Based on the binding poses predicted by molecular docking, single-point mutations were designed to test their impact on ligand binding. Mutations of several residues include the highly conserved Asp134^3.32, which is known to cause 5-HT1B or 5-HT2B receptors to abolish the monoamine ligand binding as reported in the literature (Wang et al. [2013]). In this study, residues forming hydrophobic interactions with the substitution groups on the aporphine scaffold of (–)-crebanine (1) were selected for mutation as well and they are Thr139^3.37, Gly218^5.42, Ala222^5.46, and Leu209^ECL2. Effects of those mutations were tested with the CPM assay and the affinity MS assay (Table 2). In the affinity MS experiment, relative ligand-binding capacity (represented by binding %) to different mutants and the wild-type receptor was compared. Among the six mutations tested, five of them reduced the binding of (–)-crebanine (1) by more than 40% relative to binding to the wild-type receptor, displaying the importance of hydrophobic interactions. […]
Four experimental replicates were prepared for each pair of the test ligand and the negative control. […] S/C ratios refer to the ratio of MS response of a specific ligand detected in the 5-HT2C incubation sample versus the control. […]

COc1ccc2c(c1OC)C[C@@H]1c3c(cc4c(c3-2)OCO4)CCN1C [Compound 1, (–)-crebanine]
effect on 5-HT induced SPSC [1]: significantly attenuated | (–)-Crebanine/MS relative ligand binding [2]: 15.87%
